Data as given in patent publication US7312248B2, “Control of parasites in animals by the use of novel trifluoromethanesulfonanilide oxime ether derivatives” (Schering-Plough Animal Health Corporation, priority 2004, dated 2007).
Read-outs that look alike come from different tables or passages of the source.

Columns and labels:
[1] = tested on: Brown Dog Tick (Rhipicephalus sanguineus); assay: Rapid screening protocol for topical application on brown dog ticks; format: in vivo; details: for R. sanguineus Mortality (%) 48 h: Laboratory 2 F data; for mortality at 5 µg/tick: Rhipicephalus sanguineus, topical, 24 h, read-out: R. sanguineus Mortality (%) 24 h
Protocol: d) Rapid Screening Protocol for Topical Application on Brown Dog Ticks (Rhipicephalus sanguineus)
The aim of the test was to determine the presence of significant acaricidal activity in sample compounds or formulations when applied topically on brown dog ticks. A tick was defined as dead if it gave no apparent response when touched lightly and observed for 1 minute. […] Both permethrin and fipronil were employed as reference compounds. The insect species tested was the Brown Dog Tick (Rhipicephalus sanguineus). Mixed sex adult ticks were used for tests. The strain used was cultured by von Berky Veterinary Services, Woody Point, QLD, AU and supplied as unfed adult ticks (mixed sex). Ticks were maintained in controlled conditions (temp. 18°+2° C., humidity 75±5% RH).
Temperature was maintained at 25±1° C. and the humidity was ambient. […] Ticks were each treated on the abdomen with 1 μL of a single dose level of test sample in acetone; ten ticks were treated with solvent only (acetone) in each test. Tests were replicated 4 times (total of 40 ticks treated). […]

[2] = tested on: cat flea (Ctenocephalides felis); assay: whole plant or invertebrate; format: in vivo; details: Ctenocephalides felis, Laboratory 2 B data
How it was run: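 Single-dose screen at 1.26 μg/cm^2: acetone solution dried for 24 h on a Coatasil-treated 159 mm^2 flask base, then 15 adult cat fleas aged 3-7 days per flask, four or more replicates, acetone control. Percent dead, meaning not moving or unable to right themselves, recorded after 8, 24 and/or 48 h at 25 °C and 75% RH.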

[3] = 8 h, read-out: C. felis Mortality (%) 8 h, 8 h
[4] = 24 h, read-out: C. felis Mortality (%) 24 h, 24 h

SMILES | R. sanguineus Mortality (%) 48 h [1] [%] | mortality at 1.26 µg/cm2, 1.26 µg/cm2 [2, 3] [%] | mortality at 1.26 µg/cm2, 1.26 µg/cm2 [2, 4] [%] | mortality at 5 µg/tick [1] [%]
CC/C(=N\OCc1ccccn1)c1cc(Cl)ccc1NS(=O)(=O)C(F)(F)F [Compound 204] | 87 | 100 | 100 | 
CC/C(=N\OCc1cccnc1)c1cc(Cl)ccc1NS(=O)(=O)C(F)(F)F [Compound 206] | 52 | 97 | 100 | 
O=S(=O)(Nc1ccc(Cl)cc1/C(=N/OCC1CCCCC1)C1CCCCC1)C(F)(F)F [Compound 209] | 22 | 38 | 93 | 
O=S(=O)(Nc1ccc(Cl)cc1/C(=N/OC1CCCC1)C1CCCCC1)C(F)(F)F [Compound 211] | 90 | 46 | 100 | 
O=S(=O)(Nc1ccc(Cl)cc1/C(=N/OC1CCCCC1)C1CCCCC1)C(F)(F)F [Compound 212] | 57 | 24 | 100 | 
CCO/N=C(/c1cc(Cl)ccc1NS(=O)(=O)C(F)(F)F)C1CCCCC1 [Compound 213] | 90 | 53 | 100 | 
CC/C(=N\Oc1ccc(F)cc1)c1ccc(C(F)(F)F)cc1NS(=O)(=O)C(F)(F)F [Compound 214] | 20 | 98 | 100 | 
CC(C)/C(=N\Oc1ccc(F)cc1)c1cc(Cl)ccc1NS(=O)(=O)C(F)(F)F [Compound 216] | 72 | 97 | 100 | 
C/C(=N\OCC1CCCCC1)c1ccc(C(F)(F)F)cc1NS(=O)(=O)C(F)(F)F [Compound 217] | 30 | 46 | 90 | 
C/C(=N\OCc1ccc(Cl)cc1)c1ccc(C(F)(F)F)cc1NS(=O)(=O)C(F)(F)F [Compound 218] | 75 | 90 | 100 | 
C/C(=N\OCc1ccc(C(F)(F)F)cc1)c1ccc(C(F)(F)F)cc1NS(=O)(=O)C(F)(F)F [Compound 219] | 60 | 69 | 100 | 
CC/C(=N\OCc1ccc(Cl)cc1)c1ccc(C(F)(F)F)cc1NS(=O)(=O)C(F)(F)F [Compound 220] | 62 | 54 | 100 | 
CC/C(=N\OCc1ccc(C(F)(F)F)cc1)c1ccc(C(F)(F)F)cc1NS(=O)(=O)C(F)(F)F [Compound 221] | 67 | 44 | 100 | 
CC/C(=N\OCC1CCCCC1)c1ccc(C(F)(F)F)cc1NS(=O)(=O)C(F)(F)F [Compound 222] | 32 | 27 | 96 | 
CCC(O/N=C(\C)c1cc(Cl)ccc1NS(=O)(=O)C(F)(F)F)c1ccccc1 (stereo not drawn) [Compound 255] |  | 1 | 100 | 22
CC/C(=N\OC(C)c1ccc(Cl)cc1)c1cc(Cl)ccc1NS(=O)(=O)C(F)(F)F (stereo not drawn) [Compound 257] |  | 5 | 96 | 40
